#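 1) Cells in 96-well plates. 2) Compound, 48 h, 5 concentrations. 3) Linear interpolation between surrounding doses. 4) Unreached endpoint = highest concentration. GI50: concentration for 50% inhibition of growth.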 Calls of active or inactive are those of the source. Rule as the data show it: active = GI50 up to about 1.1 µM and inactive = higher.
# Assays:
# Experiment in all cases: NCI tumour cell line growth inhibition, 48 h
# 786-0 = system: 786-0
# A549 = system: A549
# ACHN = system: ACHN
# BT-549 = system: BT-549
# CAKI-1 = system: CAKI-1
# CCRF-CEM = system: CCRF-CEM
# COLO 205 = system: COLO 205
# DU-145 = system: DU-145
# EKVX = system: EKVX
# HCC 2998 = system: HCC 2998
# HCT-116 = system: HCT-116
# HCT-15 = system: HCT-15
# HL-60 = system: HL-60
# HOP-62 = system: HOP-62
# HOP-92 = system: HOP-92
# HT-29 = system: HT-29
# Hs-578T = system: Hs-578T
# K562 = system: K562
# KM12 = system: KM12
# LOX IMVI = system: LOX IMVI
# M14 = system: M14
# MCF7 = system: MCF7
# MDA-MB-231 = system: MDA-MB-231
# MDA-MB-435 = system: MDA-MB-435
# MDA-N = system: MDA-N
# MOLT-4 = system: MOLT-4
# Malme-3M = system: Malme-3M
# NCI-H226 = system: NCI-H226
# NCI-H23 = system: NCI-H23
# NCI-H460 = system: NCI-H460
# NCI-H522 = system: NCI-H522
# NCI/ADR-RES = system: NCI/ADR-RES
# OVCAR-3 = system: OVCAR-3
# OVCAR-5 = system: OVCAR-5
# OVCAR-8 = system: OVCAR-8
# PC-3 = system: PC-3
# RPMI-8226 = system: RPMI-8226
# RXF 393 = system: RXF 393
# SF-268 = system: SF-268
# SF-295 = system: SF-295
# SF-539 = system: SF-539
# SK-MEL-28 = system: SK-MEL-28
# SK-MEL-2 = system: SK-MEL-2
# SK-MEL-5 = system: SK-MEL-5
# SK-OV-3 = system: SK-OV-3
# SN12C = system: SN12C
# SNB-19 = system: SNB-19
# SNB-75 = system: SNB-75
# SR = system: SR
# SW-620 = system: SW-620
# T47D = system: T47D
# U-251 = system: U-251
# UACC-257 = system: UACC-257
# UACC-62 = system: UACC-62
# UO-31 = system: UO-31
# A498 = system: A498
# IGROV-1 = system: IGROV-1
# OVCAR-4 = system: OVCAR-4
# TK-10 = system: TK-10
smiles,measurement,setting,value
CC(=O)OCC(OC(C)=O)C(OC(C)=O)C(OC(C)=O)C(/C=N\Nc1nc2ccccc2c(=O)[nH]1)=N/Nc1nc2ccccc2c(=O)[nH]1 (centres undefined),GI50,786-0,> 100 µM (inactive)
same,GI50,A549,> 100 µM (inactive)
same,GI50,ACHN,> 100 µM (inactive)
same,GI50,BT-549,> 100 µM (inactive)
same,GI50,CAKI-1,> 100 µM (inactive)
same,GI50,CCRF-CEM,> 100 µM (inactive)
same,GI50,COLO 205,> 100 µM (inactive)
same,GI50,DU-145,> 100 µM (inactive)
same,GI50,EKVX,> 100 µM (inactive)
same,GI50,HCC 2998,85.5 µM (inactive)
same,GI50,HCT-116,> 100 µM (inactive)
same,GI50,HCT-15,> 100 µM
same,GI50,HL-60,> 100 µM (inactive)
same,GI50,HOP-62,> 100 µM (inactive)
same,GI50,HOP-92,> 100 µM (inactive)
same,GI50,HT-29,> 100 µM (inactive)
same,GI50,Hs-578T,> 100 µM (inactive)
same,GI50,K562,> 100 µM (inactive)
same,GI50,KM12,97.7 µM (inactive)
same,GI50,LOX IMVI,> 100 µM (inactive)
same,GI50,M14,> 100 µM (inactive)
same,GI50,MCF7,> 100 µM (inactive)
same,GI50,MDA-MB-231,> 100 µM (inactive)
same,GI50,MDA-MB-435,> 100 µM (inactive)
same,GI50,MDA-N,> 100 µM (inactive)
same,GI50,MOLT-4,> 100 µM (inactive)
same,GI50,Malme-3M,> 100 µM (inactive)
same,GI50,NCI-H226,> 100 µM (inactive)
same,GI50,NCI-H23,> 100 µM (inactive)
same,GI50,NCI-H460,> 100 µM (inactive)
same,GI50,NCI-H522,> 100 µM (inactive)
same,GI50,NCI/ADR-RES,> 100 µM (inactive)
same,GI50,OVCAR-3,> 100 µM (inactive)
same,GI50,OVCAR-5,> 100 µM (inactive)
same,GI50,OVCAR-8,> 100 µM (inactive)
same,GI50,PC-3,> 100 µM (inactive)
same,GI50,RPMI-8226,> 100 µM (inactive)
same,GI50,RXF 393,> 100 µM (inactive)
same,GI50,SF-268,> 100 µM (inactive)
same,GI50,SF-295,> 100 µM (inactive)
same,GI50,SF-539,18.2 µM (inactive)
same,GI50,SK-MEL-28,> 100 µM (inactive)
same,GI50,SK-MEL-2,> 100 µM (inactive)
same,GI50,SK-MEL-5,> 100 µM (inactive)
same,GI50,SK-OV-3,> 100 µM (inactive)
same,GI50,SN12C,> 100 µM (inactive)
same,GI50,SNB-19,> 100 µM (inactive)
same,GI50,SNB-75,> 100 µM (inactive)
same,GI50,SR,> 100 µM (inactive)
same,GI50,SW-620,> 100 µM (inactive)
same,GI50,T47D,> 100 µM (inactive)
same,GI50,U-251,> 100 µM (inactive)
same,GI50,UACC-257,> 100 µM (inactive)
same,GI50,UACC-62,> 100 µM (inactive)
same,GI50,UO-31,> 100 µM (inactive)
O=C1CSC(c2ccccc2)N1c1ccc(-c2ccc(-n3c(-c4ccccc4)nc4ccccc4c3=O)cc2)cc1 (centres undefined),GI50,786-0,55 µM (inactive)
same,GI50,A498,> 100 µM (inactive)
same,GI50,A549,41.7 µM (inactive)
same,GI50,ACHN,53 µM (inactive)
same,GI50,BT-549,43.3 µM (inactive)
same,GI50,CAKI-1,> 100 µM (inactive)
same,GI50,CCRF-CEM,37.2 µM (inactive)
same,GI50,COLO 205,38.2 µM (inactive)
same,GI50,DU-145,85.1 µM (inactive)
same,GI50,EKVX,55.3 µM (inactive)
same,GI50,HCC 2998,34.8 µM (inactive)
same,GI50,HCT-15,29.2 µM
same,GI50,HL-60,27.4 µM (inactive)
same,GI50,HOP-62,> 100 µM (inactive)
same,GI50,HOP-92,> 100 µM (inactive)
same,GI50,HT-29,46.1 µM (inactive)
same,GI50,Hs-578T,> 100 µM (inactive)
same,GI50,IGROV-1,> 100 µM (inactive)
same,GI50,K562,33.3 µM (inactive)
same,GI50,KM12,26.2 µM (inactive)
same,GI50,LOX IMVI,50.7 µM (inactive)
same,GI50,M14,50 µM (inactive)
same,GI50,MCF7,35.1 µM (inactive)
same,GI50,MDA-MB-231,40.9 µM (inactive)
same,GI50,MDA-MB-435,49.8 µM (inactive)
same,GI50,MDA-N,64.9 µM (inactive)
same,GI50,MOLT-4,19.6 µM (inactive)
same,GI50,Malme-3M,35.4 µM (inactive)
same,GI50,NCI-H23,57.1 µM (inactive)
same,GI50,NCI-H460,46 µM (inactive)
same,GI50,NCI-H522,47.8 µM (inactive)
same,GI50,NCI/ADR-RES,43.5 µM (inactive)
same,GI50,OVCAR-3,46.5 µM (inactive)
same,GI50,OVCAR-4,30.5 µM (inactive)
same,GI50,OVCAR-5,> 100 µM (inactive)
same,GI50,OVCAR-8,44.4 µM (inactive)
same,GI50,PC-3,37.9 µM (inactive)
same,GI50,RPMI-8226,36.8 µM (inactive)
same,GI50,SF-268,49.4 µM (inactive)
same,GI50,SF-295,64.3 µM (inactive)
same,GI50,SK-MEL-28,> 100 µM (inactive)
same,GI50,SK-MEL-2,25.5 µM (inactive)
same,GI50,SK-MEL-5,25.2 µM (inactive)
same,GI50,SK-OV-3,> 100 µM (inactive)
same,GI50,SN12C,> 100 µM (inactive)
same,GI50,SNB-19,82.8 µM (inactive)
same,GI50,SR,19.5 µM (inactive)
same,GI50,SW-620,97.7 µM (inactive)
same,GI50,T47D,25 µM (inactive)
same,GI50,TK-10,57.9 µM (inactive)
same,GI50,U-251,56.9 µM (inactive)
same,GI50,UACC-257,> 100 µM (inactive)
same,GI50,UACC-62,34.6 µM (inactive)
same,GI50,UO-31,49.8 µM (inactive)

# Reference: ChEMBL document CHEMBL1201862, “PubChem BioAssay data set” (2004)
